Results: US7951548B2, “IL-13 production inhibitor” (Takeda Pharmaceutical Company Limited, priority 2005, dated 2011)

Columns and labels:
Type in all cases: cell-based
[1] = tested on: other receptor expression cells; test: cAMP production inhibitory activity on other receptor expression cells
[2] = tested on: rat primary culture microglial cells (PMGC); test: Phosphorylation of ERK1/2 in PMGC; conditions: lysoPS
[3] = tested on: human mast cell line LAD2 cells; test: Leukotriene production of human mast cell line LAD2 cells (Leukotriene EIA)
Procedure: The human mast cell line LAD2 cells obtained from National Institute of Health in US were subjected to passive sensitization overnight using DNP IgE (Yamasa, 1 μg/ml), washed and plated on a 96-well plate in a final cell concentration of 100,000 cells/well in the reaction solution. LAD2 cells were stimulated by lysoPS and DNP-BSA and the plate was centrifuged 20 minutes after. The leukotriene in the supernatant of the reaction solution was assayed using Leukotriene EIA Kit (Amersham).

[4] = tested on: rat peritoneal mast cells; test: Expression of IL-13 in rat peritoneal mast cells (TaqMan PCR, GAPDH corrected)
Procedure: Rat peritoneal mast cells (hereinafter RPMC) were prepared as follows. Ice-chilled mast cell medium (hereinafter MCM; 150 mM NaCl, 3.7 mM KCl, 3.0 mM NaH2PO4, 3.5 mM KH2PO4, 5.6 mM (D)-Glucose, 0.1% bovine serum albumin (hereinafter BSA), 0.1% gelatin, 10 U/ml heparin, pH 6.8) was injected into the peritoneal cavity in about 40 ml/animal. After some massage of the rat abdominal region for about 2 minutes, the peritoneal cavity was opened along the median line to drain the ascitic fluid. The ascetic fluid prepared was filtered through a cell strainer (Becton Dickinson) and centrifuged at 50×g for 7 minutes. The cells precipitated were suspended in MCM and centrifuged again at 50×g for 7 minutes. After the precipitated cells were resuspended in MCM, the suspension was layered on 2 ml of 32% (w/v) BSA solution (dissolved in 0.9% NaCl), which was allowed to stand at room temperature for 20 minutes. After centrifugation was conducted at ×300 g for 15 minutes at room temperature, the cells in the interphase between MCM and BSA solution were discarded and the precipitated cells were suspended in MCM. The suspension was centrifuged at ×300 g for 5 minutes to wash the cells twice. The precipitated cells were suspended in assay buffer (RPMI 1640 medium (Invitrogen), 0.1% BSA) and the cells were provided for the following experiment. […] RPMC was activated as follows. RPMC was suspended in assay buffer and 10 μg/ml of monoclonal mouse antibody DNP-IgE (Yamasa) was added thereto. The mixture was allowed to stand for 30 minutes on ice for passive sensitization. After centrifugation at ×300 g for 5 minutes, the precipitated cells were washed 3 times with assay buffer. RPMC suspended in assay buffer was dispensed into a 96 well V-bottomed plate in 2×10^5/well. The assay was performed at n=3 under the respective reaction conditions. After a plate was kept warm at 37° C. for 5 minutes, lysoPS (Sigma) of 3 μM in a final concentration or DNP-BSA (Carbiochem) of 100 ng/ml in a final concentration was added depending on the assay conditions and the plate was allowed to stand at 37° C. in a 5% CO2 incubator. The plate was ice-cooled 2, 4, 6 and 8 hours after to terminate the activation of RPMC. Centrifugation was performed at ×300 g for 5 minutes and the total RNA was extracted from the cells precipitated using RNeasy Mini Kit (Qiagen) in accordance with the protocol attached. The obtained total RNA was concentrated and dissolved in RNase-free H2O in accordance with the protocol attached. Next, using 250 ng of the total RNA, reverse transcription was performed by the following procedure using SuperScript II ReverseTranscriptase (Invitrogen) to prepare single-stranded cDNA. After 0.5 μg of Oligo (dT) 12-18 primer (Invitrogen) and 1 μl of 10 mM dNTP (Invitrogen) were added to the total RNA solution and then RNase-free H2O was added to make the whole volume 12 μl, incubation was performed at 70° C. for 10 minutes followed by ice cooling for a minute. After adding 4 μl of 5× First-Strand Buffer (attached to SuperScript II ReverseTranscriptase), 2 μl of 0.1M DTT (attached to SuperScript II ReverseTranscriptase), 1 μl of RNaseOUT (Invitrogen) and 1 μl of SuperScript II ReverseTranscriptase, incubation was performed at 42° C. for 50 minutes and then at 70° C. for 15 minutes, followed by ice cooling for 5 minutes. The thus prepared cDNA was purified using Ethachinmate in accordance with the protocol attached and dissolved in Tris-EDTA Buffer (Fluka).
In TaqMan PCR below, rIL-13-tF (SEQ ID NO: 24) and rIL-13-tR (SEQ ID NO: 25) were used as primers and rIL-13-tP (SEQ ID NO: 26) as a probe for quantification of rat IL-13 (interleukin-13) and rIL-13 standard (SEQ ID NO: 27) was used as a standard. TaqMan Rodent GAPDH Control Reagents VIC Probe (Applied Biosystems) were used as primers and a probe for quantification of GAPDH, and rGAPDH standard (SEQ ID NO: 28) was used as a standard. […]

[5] = tested on: rat primary culture microglial cells (PMGC); test: Expression of cytokine genes in activated PMGC (TaqMan PCR); conditions: lysoPS 5 μM, LPS 1 μg/ml, IFN-α 1 ng/ml
Procedure: In order to examine the action of lysoPS on the activation of microglia, actions induced by the addition of lysoPS in PMGC activated by LPS stimulation was examined in the presence of IFN-α. PMGC, which was prepared from the brain of rat of one day old on the preceding day, was plated on a 24-well plate (Falcon 353047) at 50000 cells/well, and IFN-α (1 ng/ml, Biovision) was added 6 hours after. On the following day, lysoPS (5 μM) was added upon stimulation by LPS (1 μg/ml), and comparison was made between the presence and absence of lysoPS if cytokine production was affected. RNA was prepared as in the procedure described in EXAMPLE 4 for 2 and 8 hours after addition or without addition of LPS and lysoPS (5 μM). The sequencing information of the primers, probe and standard used for TaqMan are as described above. The cytokine production was compared by TaqMan PCR in terms of changes in expression levels of cytokine genes.

[6] = antigen (DNP-BSA 100 ng/ml)+lysoPS 3 μM, 4 hours after the stimulation
[7] = antigen+lysoPS 3 μM, 6 after the stimulation
[8] = antigen+lysoPS 3 μM, 8 hours after the stimulation

How did the “cAMP production inhibitory action on other receptor expression cells” value [1] turn out when lysophosphatidylserine [lysoPS] was run?
Its value is “not noted”.

What about the “phosphorylation of ERK1/2” value [2] of the same substance?
Its value is “also noted in PMGC”.

What about the leukotriene production ([3]; 300 ng/ml DNP-BSA with 0.1 μM lysoPS added simultaneously) of the same substance?
The leukotriene production was 382 pg/mL.

What about the leukotriene production ([3]; 300 ng/ml DNP-BSA with 0.3 μM lysoPS added simultaneously) of the same substance?
The leukotriene production was 529 pg/mL.

And the leukotriene production ([3]; 300 ng/ml DNP-BSA with 1 μM lysoPS added simultaneously)?
The leukotriene production was 638 pg/mL.

And the leukotriene production ([3]; 300 ng/ml DNP-BSA with 3 μM lysoPS added simultaneously)?
The leukotriene production was 750 pg/mL.

And the leukotriene production ([3]; 300 ng/ml DNP-BSA with 10 μM lysoPS added simultaneously)?
Its leukotriene production is 792 pg/mL.

And the “expression level of IL-13 after GAPDH correction, compared to stimulation by the antigen alone” value [4, 6]?
Its value is “about 36 times”.

What about the “expression level of IL-13 after GAPDH correction, compared to the level without any stimulation” value [4, 6] of the same substance?
The value was “about 27 times”.

What about the “expression level of IL-13, compared to stimulation by the antigen alone” value [4, 7] of the same substance?
The value was “about 19 times”.

What about the “expression level of IL-13, compared to the level without any stimulation” value [4, 7] of the same substance?
Its value is “about 13 times”.

And the “expression level of IL-13 after GAPDH correction, compared to stimulation by the antigen alone” value [4, 8]?
The value was “about 27 times”.

What about the “expression level of IL-13 after GAPDH correction, compared to the level without any stimulation” value [4, 8] of the same substance?
Its value is “about 13 times”.

And the “expression level of IL-13 (in words)” value ([4]; stimulated by the antigen+lysoPS)?
The value was “marked increase in expression”.

What about the “expression of inflammatory cytokine IL-6” value ([5]; 2 hours after the addition) of the same substance?
Its value is “tendency to suppress the expression”.

What about the “expression of inflammatory cytokine TNF-α” value ([5]; 2 hours after the addition) of the same substance?
The value was “tendency to suppress the expression”.

What about the “expression of anti-inflammatory cytokine IL-10” value ([5]; 8 hours after) of the same substance?
The value was “tendency to increase its expression”.
